Patent US12195482B1 (Arcus Biosciences, Inc., priority 2022, dated 2025)

Assays:
p-AXL = molecular target: T1, p-AXL (Homo sapiens, UniProt P30530); experiment: Axl phosphorylation inhibition ELISA in HEK293T cells transfected with NanoLuc-tagged AXL; assay type: cell-based; settings: 1 h compound incubation, media (OptiMEM)
T1 construct: expressed in transfected cells; host or cells: HEK293T
T1 sequence (P30530 26-894): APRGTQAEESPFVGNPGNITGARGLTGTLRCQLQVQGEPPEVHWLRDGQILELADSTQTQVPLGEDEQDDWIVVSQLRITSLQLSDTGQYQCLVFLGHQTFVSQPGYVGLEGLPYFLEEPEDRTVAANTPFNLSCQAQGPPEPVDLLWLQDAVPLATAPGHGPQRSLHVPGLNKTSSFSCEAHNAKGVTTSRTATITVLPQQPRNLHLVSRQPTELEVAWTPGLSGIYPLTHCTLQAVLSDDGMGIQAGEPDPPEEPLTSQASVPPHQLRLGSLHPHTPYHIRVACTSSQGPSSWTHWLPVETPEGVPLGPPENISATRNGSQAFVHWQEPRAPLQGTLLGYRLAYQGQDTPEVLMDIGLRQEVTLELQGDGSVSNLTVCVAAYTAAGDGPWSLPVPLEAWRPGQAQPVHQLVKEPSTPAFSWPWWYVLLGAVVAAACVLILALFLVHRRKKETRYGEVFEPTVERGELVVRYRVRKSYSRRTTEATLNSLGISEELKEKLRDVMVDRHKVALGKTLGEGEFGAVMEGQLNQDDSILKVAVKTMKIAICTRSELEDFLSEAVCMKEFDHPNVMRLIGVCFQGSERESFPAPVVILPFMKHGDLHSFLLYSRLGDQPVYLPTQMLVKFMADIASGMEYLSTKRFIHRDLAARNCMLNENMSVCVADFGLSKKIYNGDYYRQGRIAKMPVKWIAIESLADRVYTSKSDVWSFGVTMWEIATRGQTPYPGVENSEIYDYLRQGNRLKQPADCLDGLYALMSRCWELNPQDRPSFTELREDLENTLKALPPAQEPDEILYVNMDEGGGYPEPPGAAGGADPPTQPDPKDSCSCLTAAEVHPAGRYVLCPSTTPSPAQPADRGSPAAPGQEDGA
Procedure, shortened: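 Phospho-AXL detected by luminescence of NanoLuc tag after capture of cell lysate on biotinylated anti-phospho-tyrosine mAb plates (2 h). Lysates came from transiently transfected HEK293T cells treated 1 h at 37° C with serial 2-fold dilutions (22 points). IC50 by standard 4-parameter logistic fitting.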

Axl = molecular target: T2, Axl (Homo sapiens, UniProt P30530); experiment: Biochemical potency, HTRF KinEASE-TK kinase assay; parameters: purchased Invitrogen; settings: 5 nM AXL, 700 μM ATP
T2 sequence (P30530 26-894): T1 sequence (P30530 26-894)
Procedure, shortened: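 Phosphorylation of a biotinylated tyrosine-kinase peptide (800 nM) by AXL (5 nM) or TYRO3/MER (1 nM) is measured at 700 µM ATP after 2 h at room temperature, following 1 h enzyme–compound preincubation. Signal is the time-resolved FRET ratio, converted to percent activity.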

- IC50 (p-AXL): < 100 nM
- IC50 (Axl): < 100 nM
SMILES: Cc1cccnc1-c1ccc(-c2c[nH]c3ncc(-c4ccc5c(c4)CC[C@@H](N4C6COCC4C6)CC5)cc23)cc1 [Example 1, 6-[(7S)-2-{3-[4-(3-Methylpyridin-2-yl)phenyl]-1H-pyrrolo[2,3-b]pyridin-5-yl}-6,7,8,9-tetrahydro-5H-benzo[7]annulen-7-yl]-3-oxa-6-azabicyclo[3.1.1]heptane]
